Experimental data reported in US11993801B2, “Base-modified nucleotides as substrates for TdT-based enzymatic nucleic acid synthesis” (Illumina Singapore Pte. Ltd., priority 2020, dated 2024).

What was measured:
TdT [1] = target: T1, TdT (Bos taurus, UniProt P06526); assay: TdT incorporation assay (extension of 21-nt oligonucleotide, denaturing TBE-Urea gel); format: biochemical; details: for yield of 22-nt oligo (+1 product) / yield of 23-nt oligo (+2 product) / yield of 24-nt oligo (+3 product): 40 μM nucleotide
T1 construct: purchased New England Biolab (Ipswich, MA)
T1 sequence (P06526 whole entry): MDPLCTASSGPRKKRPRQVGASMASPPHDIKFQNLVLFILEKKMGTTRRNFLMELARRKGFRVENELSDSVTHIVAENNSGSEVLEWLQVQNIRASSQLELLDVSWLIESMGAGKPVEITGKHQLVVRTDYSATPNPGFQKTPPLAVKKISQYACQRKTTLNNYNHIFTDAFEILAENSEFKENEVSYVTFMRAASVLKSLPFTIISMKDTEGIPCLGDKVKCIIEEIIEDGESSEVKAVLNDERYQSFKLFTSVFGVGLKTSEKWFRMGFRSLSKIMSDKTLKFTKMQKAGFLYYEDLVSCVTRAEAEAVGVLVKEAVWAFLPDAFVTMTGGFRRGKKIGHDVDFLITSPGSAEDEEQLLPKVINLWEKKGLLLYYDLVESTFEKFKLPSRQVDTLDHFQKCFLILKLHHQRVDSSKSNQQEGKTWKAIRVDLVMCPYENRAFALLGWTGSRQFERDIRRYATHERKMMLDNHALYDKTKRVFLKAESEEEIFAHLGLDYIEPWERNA
Method: DNA oligonucleotide sequence used for primer extension assays is: ATTCAGGACGAGCCTCAGACC (SEQ ID NO: 1)
[…] The solution was then heated at 95° C. for 5 minutes to inactivate TdT. UV cleavage of the photolabile group was done using an 8 W UV lamp at 365 nm for 10 minutes.
(§1) Initrogen (Carlsbad, California) Novex™ TBE-Urea gel (15%) was pre-washed with 1×TBE running buffer to remove excess urea. Oligonucleotide samples (5 μL) were mixed with Novex™ TBE-Urea Sample Buffer (2×, 5 μL). The mixture was then heated at 95° C. for 5 minutes and loaded to the gel. Gels were run in a 1×TBE running buffer at up to 240 V until the bromophenol blue reached the bottom of the gel. The gel was then visualized using Gel Doc XR+ and analyzed using the gel analysis tool in the Bio-Rad (Hercules, California) Image Lab software.

TdT [2] = details: cited from earlier work
TdT [3] = target: T1, TdT; assay: 2 cycle incorporation and deprotection; format: biochemical; details: nucleotide 20 μM, 7 minutes at 37° C., 8 W UV lamp at 365 nm for 10 minutes per cycle (FIG. 5)
Method: A 6-fluorescein-tagged 21-nt oligonucleotide (200 nM), 1× TdT buffer (NEB), TdT (2 U μL^−1) CoCl2 (NEB, 0.25 mM) and nucleotide (20 μM) in 500 μL solution was incubated at 37° C. for 7 minutes and quenched with EDTA (50 μL, 500 mM). The solution was concentrated using MilliporeSigma (Burlington, Massachusetts) Amicon Ultra-0.5 mL Centrifugal Filters (3 kDa) to a final volume of 30 μL. Sodium Acetate solution (10 μL, 3M, pH 5.0) was added to the concentrated solution and further purified using Zymo (Irvine, California) DNA Clean & Concentrator. UV cleavage of the photolabile group was done using an 8 W UV lamp at 365 nm for 10 minutes. The steps were then repeated to give the second incorporation.
as §1

[4] = 200 nM 21-nt oligonucleotide, 1 U μL^−1 TdT, 15 minutes

Which “incorporation by TdT” value (TdT [1]; nucleotide 1 μM to 32 μM, 10 minutes of incubation at 37° C. (FIG. 4)) does the source give for Cc1cn([C@H]2C[C@H](OCN=[N+]=[N-])[C@@H](COP(=O)(O)OP(=O)(O)OP(=O)(O)O)O2)c(=O)[nH]c1=O [3′-O-azidomethyl-dTTP, reference compound] here?
The value was “unable to incorporate”.

Which “incorporation by TdT compared to that of dTTP” value (TdT [1]; Lanes 6-7, FIG. 2A) does the source give for NCC#Cc1cn([C@H]2C[C@H](O)[C@@H](COP(=O)(O)OP(=O)(O)OP(=O)(O)O)O2)c(=O)[nH]c1=O [propargylamino-dUTP, reference compound] here?
The value was “significantly slower”.

With N3-PEG8-dUTP [Compound 2] as the compound, how does the “yield of 22-nt oligo (+1 product)” value (TdT [1]; [4]) read?
The value was 88%.

And the “yield of 23-nt oligo (+2 product)” value (TdT [1]; [4])?
The value was 12%.

And the “yield of 24-nt oligo (+3 product)” value (TdT [1]; [4])?
The value was “not observed”.

And the “yield of 23-nt oligo (+2 product)” value (TdT [1]; 30 minutes of incubation)?
The value was 22%.

What about the “yield of 24-nt oligo (+3 product)” value (TdT [1]; 30 minutes of incubation) of the same compound?
Its value is “not observed”.

Which results are given for N3-PEG24-dUTP [Compound 4]?
yield of 22-nt oligo (+1 product) (TdT [1]; [4]): quantitative; yield of 22-nt oligo (+1 product) (TdT [1]; 30 minutes of incubation): 98%; yield of 23-nt oligo (+2 product) (TdT [1]; 30 minutes of incubation): 2%; yield of 24-nt oligo (+3 product) (TdT [1]; 30 minutes of incubation): not observed

For N3-PEG12-dUTP [Compound 3], which “yield of 22-nt oligo (+1 product)” value (TdT [1]; [4]) is on record?
Its value is 94%.

What about the “yield of 23-nt oligo (+2 product)” value (TdT [1]; 30 minutes of incubation) of the same compound?
The value was 13%.

And the “yield of 24-nt oligo (+3 product)” value (TdT [1]; 30 minutes of incubation)?
Its value is “not observed”.

For CCCCSCCc1cn([C@H]2C[C@H](O)[C@@H](COP(=O)(O)OP(=O)(O)OP(=O)(O)O)O2)c2ncnc(N)c12 [7-[2-(butylsulfanyl)ethyl]-2′-deoxy-7-deazaadenosine 5′-O-triphosphate], which “number of incorporation events by TdT” value (TdT [2]) is on record?
Its value is “only a single incorporation event”.

For N3-PEG23-nitrobenzyl-dUTP [Compound 5], which “incorporation by TdT” value (TdT [1]; nucleotide 20 μM (Lane 10, FIG. 4)) is on record?
The value was “could be incorporated”.

And the “reaction time in which quantitative incorporation was achieved” value (TdT [1]; optimized conditions, incorporation time varied from 5 to 9 minutes (FIG. 3))?
The value was at most 7 min.

And the “product after 2 cycles of incorporation and photocleavage of PEG moiety” value (TdT [3])?
The value was “the desired 23-nt oligo”.

With Nc1ncnc2c1c(CCSc1ccccc1)cn2[C@H]1C[C@H](O)[C@@H](COP(=O)(O)OP(=O)(O)OP(=O)(O)O)O1 [7-[2-(phenylsulfanyl)ethyl]-2′-deoxy-7-deazaadenosine 5′-O-triphosphate] as the compound, how does the “number of incorporation events by TdT” value (TdT [2]) read?
Its value is “only a single incorporation event”.

Which “yield of 22-nt oligo (+1 product)” value (TdT [1]; [4]) does the source give for N3-PEG4-dUTP [Compound 1] here?
The value was 55%.

And the “yield of 23-nt oligo (+2 product)” value (TdT [1]; [4])?
The value was 41%.

What about the “yield of 24-nt oligo (+3 product)” value (TdT [1]; [4]) of the same compound?
The value was 4%.

And the “yield of 22-nt oligo (+1 product)” value (TdT [1]; 30 minutes of incubation)?
Its value is 35%.

What about the “yield of 23-nt oligo (+2 product)” value (TdT [1]; 30 minutes of incubation) of the same compound?
Its value is 56%.

And the “yield of 24-nt oligo (+3 product)” value (TdT [1]; 30 minutes of incubation)?
Its value is 9%.
